Results on 55 molecules are retold here after patent US11225481B2 (Centre national de la recherche scientifique, priority 2015, dated 2022).

The target in this experiment is T1, BRD4(BD1) (Homo sapiens, UniProt O60885).
T1 construct: a BRD4(BD1) synthetic gene that includes a TEV cleavage site was purchased from LifeTechnology; made in house
Nature of the experiment: HTRF assay, disruption of bromodomain/histone peptide interaction. The following applies: HTRF; mean ± SD of three experiments; Table 2; read-out: IC50 μM, effect on BRD4(BD1) activity. The format is binding. Here is the method:
HTRF assays were performed in white 384 Well Small Volume™ HiBase Polystyrene Microplates (Greiner) with a total working volume of 20 μL. Compounds were dispensed, with 200 nL per well (1% final DMSO), from a concentration stock of 1 mM in 100% DMSO and with serial DMSO dilutions, using a Mosquito Crystal pipetting robot platform (TTP labtech). The IC50 measurements were performed in triplicates (Table 2 and 3). All HTRF reagents were purchased from CisBio Bioassays and reconstituted according to the supplier protocols. For each assay 14.7 μL of mix 1 (protein+peptide) is added in the assay wells, containing previously dispensed inhibitors, according to the final concentration and buffer described in Table 4, using a Biomek NX MC pipetting robot (Beckman). Then, 5.1 μL of mix 2 (donnor+acceptor) is added. HTRF signals were measured, after a final incubation (overnight at room temperature), using a PHERAstar FS (BMG Labtech) with an excitation filter at 337 nm and fluorescence wavelength measurement at 620 and 665 nm, an integration delay of 60 μs and an integration time of 500 μs. Results were analyzed with a two-wavelengths signal ratio: [intensity (665 nm)/intensity (620 nm)]*10^4. Percentage of inhibition was calculated using the following equation: % inhibition=[(compound signal)−(min signal)]/[(max signal)−(min signal)]*100, where ‘max signal’ is the signal ratio with the compound vehicle alone (DMSO) and ‘min signal’ the signal ratio without peptide.
For Isothermal Titration Calorimetry (ITC) and crystallogenesis, BRD4(BD1) was produced and purified using a histidine tag affinity chromatography as described by Filipakopoulos et al.9 For these experiments, a pNIC28-BSA4 expression vector containing BRD4(BD1) and a Tobacco Etch Virus (TEV) protease cleavage site have kindly been provided by Stefan Knapp laboratory from the SGC at the University of Oxford. After size exclusion chromatography, the fractions presenting pure BRD4(BD1) after TEV cleavage of the histidine tag were pooled and concentrated to 25 mg/mL for crystallogenesis. For ITC assays, the protein was concentrated up to at 6 mg/mL and the DTT was removed using a buffer exchange column (PD10 from GE healthcare) equilibrated with 10 mM HEPES pH=7.5, 150 mM NaCl. For Homogeneous Time Resolved Fluorimetry (HTRF) experiments, a BRD4(BD1) synthetic gene that includes a TEV cleavage site was purchased from LifeTechnology in a pDONR transport vector before cloning into a pDESTTM15 expression vector for GST affinity purification. Protein production and purification was carried out using similar protocols and buffers as used for the His-BRD4(BD1) system. Purification was carried on GST affinity resin (Thermo Scientific) and reduced glutathione was used for protein release. GST-BRD4(BD1) was further purified by size exclusion chromatography on a Superdex 16/60 Hiload column (GE Healthcare) using 20 mM TRIS pH=8.0, 150 mM NaCl Buffer.
For orientation: TR-FRET usually uses a lanthanide donor and a delayed reading to cut background.

The structures appear in SMILES notation.

For the molecule `Nc1nc2nc[nH]c2c(=O)[nH]1` [Compound 1a], the IC50 is above 100 µM.

Consider `Cn1cnc2nc(N)[nH]c(=O)c21` [Compound 1b], for which the IC50 is above 100 µM. In the case of `CCn1cnc2[nH]c(N)nc(=O)c21` [Compound 1c, 7-ethylguanine] it was above 100 µM. The result for `Nc1nc2nc[nH]c2c(=S)[nH]1` [Compound 2a] reads above 100 µM. In the case of `O=c1[nH]c(=O)c2[nH]cnc2[nH]1` [Compound 2b, xanthine] it was above 100 µM; in that of `Cn1cnc2[nH]c(=O)[nH]c(=O)c21` [Compound 2c], above 100 µM; in that of `CCn1cnc2[nH]c(=O)[nH]c(=O)c21` [Compound 3a, 7-Ethylxanthine], above 100 µM.

Regarding `CC(C)Cn1cnc2[nH]c(=O)[nH]c(=O)c21` [Compound 3b], the IC50 was above 100 µM.

For `CCn1cnc2[nH]c(NC(=O)OC(C)(C)C)nc(=O)c21` [Compound 3c], the concentration for half-maximal inhibition (IC50) is above 100 µM. On to `O=c1[nH]c(=O)n(Cc2ccc(Cl)cc2)c2nc[nH]c12` [Compound 4a], for which the IC50 was above 100 µM. For the molecule `CCn1cnc2c1c(=O)[nH]c(=O)n2C` [Compound 4c], the half-maximal inhibitory concentration (IC50) is above 100 µM.

Take `CCn1cnc2c1c(=O)[nH]c(=O)n2CC` [Compound 5a]: the IC50 turned out to be 70.3 µM.

Consider `CCn1cnc2c1c(=O)[nH]c(=O)n2C(C)C` [Compound 5b], for which the IC50 amounted to 52.5 µM. As to `CCn1cnc2c1c(=O)[nH]c(=O)n2CC(C)C` [Compound 5c], the IC50 was above 100 µM.

Turning to `CCn1cnc2c1c(=O)[nH]c(=O)n2Cc1ccc(Br)cc1` [Compound 6c], the IC50 amounted to 2.6 µM.

As to `CCn1cnc2c1c(=O)[nH]c(=O)n2Cc1ccc(C(C)(C)C)cc1` [Compound 7b], the IC50 is 2.6 µM. The result for `CCCCn1c(NC(=O)OC(C)(C)C)nc(=O)c2c1ncn2CC` [Compound 7c] reads 17.9 µM; that for `CCn1cnc2c1c(=O)nc(NC(=O)OC(C)(C)C)n2Cc1ccc(Cl)cc1` [Compound 8a], above 100 µM. Regarding `CCn1cnc2c1c(=O)nc(NC(=O)OC(C)(C)C)n2C(=O)OC(C)(C)C` [Compound 8b], the IC50 was above 100 µM.

`CCCCn1c(N)nc(=O)c2c1ncn2CC` [Compound 8c]: the IC50 was determined as 10.7 µM.

In the case of `CCn1cnc2c1c(=O)nc(N)n2Cc1ccc(Cl)cc1` [Compound 9a], the IC50 was above 100 µM. The result for `Cn1c(-c2ccc(Cl)cc2)nc2c1c(=O)[nH]c(=O)n2Cc1ccccc1` [Compound 10c] reads above 100 µM; that for `O=c1[nH]c(=O)c2[nH]c(Br)nc2[nH]1` [Compound 11b], above 100 µM; that for `O=c1[nH]c(=O)n(Cc2ccc(Cl)cc2)c2nc(Br)[nH]c12` [Compound 11c], above 100 µM. Turning to `CCn1c(Br)nc2[nH]c(=O)[nH]c(=O)c21` [Compound 12a], the IC50 was above 100 µM. On to `CCn1c(Br)nc2c1c(=O)[nH]c(=O)n2Cc1ccc(Cl)cc1` [Compound 12b], for which the IC50 is below 100 µM. With `CCCCn1c(=O)[nH]c(=O)c2c1nc(Cl)n2CC` [Compound 12c, 3-Butyl-8-chloro-7-ethylxanthine], the IC50 is above 100 µM. As for `CCn1c(S)nc2c1c(=O)[nH]c(=O)n2C` [Compound 14c], the IC50 is below 100 µM. The result for `CCCCn1c(=O)[nH]c(=O)c2c1nc(S)n2CC` [Compound 15a, 3-butyl-7-ethyl-8-mercaptoxanthine] reads 35.1 µM; that for `CCn1c(SC)nc2c1c(=O)[nH]c(=O)n2C` [Compound 15c], 100 µM. `O=C(O)CCSc1nc2c([nH]1)c(=O)[nH]c(=O)n2Cc1ccc(F)cc1` [Compound 16a]: the IC50 is above 100 µM. In the case of `CCCCn1c(=O)[nH]c(=O)c2[nH]c(CO)nc21` [Compound 17a, 3-Butyl-8-hydroxymethylxanthine] it was above 100 µM; in that of `O=c1[nH]c(=O)n(Cc2ccc(Cl)cc2)c2nc(CO)[nH]c12` [Compound 17b], above 100 µM. For the molecule `CCCCn1c(=O)[nH]c(=O)c2c1nc(CO)n2C` [Compound 17c], the 50% inhibitory concentration (IC50) was above 100 µM. In the case of `CCCCn1c(=O)[nH]c(=O)c2c1nc(CO)n2CC` [Compound 18a, 3-Butyl-7-ethyl-8-hydroxymethylxanthine] it was above 100 µM. In the case of `CCCCn1c(=O)[nH]c(=O)c2c1nc(CO)n2CCC` [Compound 18b] it was above 100 µM; in that of `CCn1c(CO)nc2c1c(=O)[nH]c(=O)n2Cc1ccccc1` [Compound 18c], above 100 µM; in that of `CCn1c(CO)nc2c1c(=O)[nH]c(=O)n2Cc1ccc(Cl)cc1` [Compound 19a], 93.3 µM.

With `CCCCn1c(=O)[nH]c(=O)c2c1nc(CCl)n2CC` [Compound 19c, 3-butyl-8-chloromethyl-7-ethylxanthine], the IC50 was above 100 µM. In the case of `CCn1c(CSc2nc[nH]n2)nc2c1c(=O)[nH]c(=O)n2Cc1ccc(Cl)cc1` [Compound 21a] it was 45.6 µM. In the case of `CCCCn1c(=O)[nH]c(=O)c2c1nc(CSc1n[nH]c(N)n1)n2CC` [Compound 21b, 8-(5-Amino-1H-[1,2,4]triazol-3-ylsulfanylmethyl)-3-butyl-7-ethyl-3,7-dihydro-purine-2,6-dione] it was 89.1 µM; in that of `CCCCn1c(=O)[nH]c(=O)c2c1nc(CSc1nc3ccccc3[nH]1)n2CC` [Compound 22b], above 100 µM; in that of `CCn1c(CSc2nc3ccccc3[nH]2)nc2c1c(=O)[nH]c(=O)n2Cc1ccc(Cl)cc1` [Compound 23a], above 100 µM. Take `CCCCn1c(=O)[nH]c(=O)c2c1nc(CSc1cc3ccccc3[nH]1)n2CC` [Compound 23b]: the IC50 was above 100 µM. In the case of `CCn1c(CSc2cc3ccccc3[nH]2)nc2c1c(=O)[nH]c(=O)n2Cc1ccc(Cl)cc1` [Compound 24a], the IC50 is above 100 µM. For `CCCCn1c(=O)[nH]c(=O)c2c1nc(CSc1nc3nc(C)cc(C)n3n1)n2CC` [Compound 24b], the IC50 is 69.6 µM. In the case of `CCCCn1c(=O)[nH]c(=O)c2c1nc(CSc1nc3nc(CC)cc(CC)n3n1)n2CC` [Compound 25b] it was 46.6 µM; in that of `CCCCc1c(C)nc2nc(SCc3nc4c(c(=O)[nH]c(=O)n4Cc4ccc(Cl)cc4)n3C)nn2c1C` [Compound 27a], 100 µM; in that of `CCCCc1c(C)nc2nc(SCc3nc4c(c(=O)[nH]c(=O)n4Cc4ccc(Cl)cc4)n3CC(C)C)nn2c1C` [Compound 28a], above 100 µM. As for `CCCCn1c(=O)[nH]c(=O)c2c1nc(Sc1nc3nc(C)cc(C)n3n1)n2CC` [Compound 28b, 3-Butyl-8-(5,7-dimethyl-[1,2,4]triazolo[1,5-a]pyrimidin-2-ylsulfanyl)-7-ethyl-3,7-dihydro-purine-2,6-dione], the IC50 was above 100 µM. Take `CCn1c(Sc2nc3nc(C)cc(C)n3n2)nc2c1c(=O)[nH]c(=O)n2Cc1ccc(Cl)cc1` [Compound 29a]: the IC50 is above 100 µM.

With `CCc1cc(CC)n2nc(Sc3nc4c(c(=O)[nH]c(=O)n4Cc4ccc(Cl)cc4)n3CC)nc2n1` [Compound 30a], the IC50 was 18.3 µM. The result for `CCCCc1c(C)nc2nc(Sc3nc4c(c(=O)[nH]c(=O)n4Cc4ccc(Cl)cc4)n3CC)nn2c1C` [Compound 31a] reads 46.8 µM. Consider `CCCCc1c(C)nc2nc(CSc3nc4c(c(=O)[nH]c(=O)n4Cc4ccc(Cl)cc4)n3CC)nn2c1C` [Compound 31b], for which the IC50 stood at 59.6 µM. The result for `CCCCc1c(C)nc2nc(CSc3nc4c(c(=O)[nH]c(=O)n4CCCC)n3CC)nn2c1C` [Compound 32a, 3-Butyl-8-(6-butyl-5,7-dimethyl-[1,2,4]triazolo[1,5-a]pyrimidin-2-ylmethylsulfanyl)-7-ethyl-3,7-dihydro-purine-2,6-dione] reads 54 µM.

Usually IC50 stands for the concentration at which inhibition is half-maximal.
